Test results from ChEMBL document CHEMBL6078685, “Potential COX-2 inhibitors modulating NF-κB/MAPK signaling pathways: Design, synthesis and evaluation of anti-inflammatory activity of Pterostilbene-carboxylic acid derivatives with an oxime ether moiety” (Bioorg Med Chem, 2025).

Assays:
RAW264.7 [1] = assay: Inhibition of LPS-induced NO release in mouse RAW264.7 cells at 20 uM preincubated with compound for 48 hrs followed by LPS addition and measured after 24 hrs by nitric oxide assay relative to control; type: functional; settings: time 72 hrs
RAW264.7 [2] = assay: Cytotoxicity against mouse RAW264.7 cells assessed as reduction in cell viability at 20 uM incubated for 48 hrs by MTT method; type: toxicity, cell-based; settings: raw264.7, 48 h
RAW264.7 [3] = assay: Inhibition of LPS-induced NO release in mouse RAW264.7 cells preincubated with compound for 48 hrs followed by LPS addition and measured after 24 hrs by nitric oxide assay; type: functional, cell-based
RAW264.7 [4] = assay: cells; settings: Mus musculus
Description: Antiinflammatory activity against mouse RAW264.7 cells assessed as inhibition of LPS-induced TNF-alpha secretion pretreated with LPS for 3 hrs followed by compound addition and measured after 24 hrs by ELISA

RAW264.7 [5] = assay: cells; settings: Mus musculus; remark: listed apart in the source
Description: Antiinflammatory activity against mouse RAW264.7 cells assessed as inhibition of LPS-induced IIL-1beta secretion pretreated with LPS for 3 hrs followed by compound addition and measured after 24 hrs by ELISA

RAW264.7 [6] = assay: Downregulation of iNOS expression in LPS-induced mouse RAW264.7 cells preincubated for 3 hrs followed by LPS addition for 30 mins by Western blotting analysis; type: functional, cell-based; settings: time 3.5 hrs
RAW264.7 [7] = assay: Antiinflammatory activity against mouse RAW264.7 cells assessed as decrease in LPS-induced IIL-1beta release preincubated for 3 hrs followed by LPS addition for 30 mins by Western blotting analysis; type: functional, cell-based; settings: dose 4-16 µM, time 3.5 hrs
RAW264.7 [8] = assay: cells; settings: Mus musculus; remark: listed apart in the source
Description: Antiinflammatory activity against mouse RAW264.7 cells assessed as inhibition of LPS-induced IIL-6 secretion pretreated with LPS for 3 hrs followed by compound addition and measured after 24 hrs by ELISA

RAW264.7 [9] = assay: Antiinflammatory activity against mouse RAW264.7 cells assessed as decrease in LPS-induced IIL-6 release preincubated for 3 hrs followed by LPS addition for 30 mins by Western blotting analysis; type: functional, cell-based; settings: dose 4-16 µM, time 3.5 hrs
RAW264.7 [10] = assay: Downregulation of COX-2 expression in LPS-induced mouse RAW264.7 cells preincubated for 3 hrs followed by LPS addition for 30 mins by Western blotting analysis; type: functional, cell-based; settings: time 3.5 hrs
RAW264.7 [11] = assay: Antiinflammatory activity against mouse RAW264.7 cells assessed as decrease in LPS-induced TNF-alpha release preincubated for 3 hrs followed by LPS addition for 30 mins by Western blotting analysis; type: functional, cell-based; settings: dose 4-16 µM

## CCCC(=O)OCCCNC(=O)COc1ccc(/C=C/c2cc(OC)cc(OC)c2/C=N/OCc2ccc(F)cc2)cc1
RAW264.7 [1]
  inhibition at 20 µM: 47.1%
RAW264.7 [2]
  Activity: Non-toxic

## COc1cc(/C=C/c2ccc(OCC(=O)O)cc2)c(/C=N/OCc2ccc(Cl)cc2)c(OC)c1
RAW264.7 [1]
  inhibition at 20 µM: 24.8%
RAW264.7 [2]
  Activity: Non-toxic

## COc1cc(/C=C/c2ccc(OCC(=O)NCCCO)cc2)c(/C=N/OCc2ccccc2)c(OC)c1
RAW264.7 [1]
  inhibition at 20 µM: 34.7%
RAW264.7 [2]
  Activity: Non-toxic

## CCNC(=O)COc1ccc(/C=C/c2cc(OC)cc(OC)c2/C=N/OCc2ccc(Cl)c(F)c2)cc1
RAW264.7 [1]
  inhibition at 20 µM: 40.6%
RAW264.7 [2]
  Activity: Non-toxic

## CCOC(=O)COc1ccc(/C=C/c2cc(OC)cc(OC)c2/C=N/OCc2ccc(Br)cc2)cc1
RAW264.7 [1]
  inhibition at 20 µM: 19.5%
RAW264.7 [2]
  Activity: Non-toxic

## COc1cc(/C=C/c2ccc(OCC(=O)O)cc2)c(/C=N/OCc2ccc(F)cc2)c(OC)c1
RAW264.7 [1]
  inhibition at 20 µM: 26.1%
RAW264.7 [2]
  Activity: Non-toxic

## COc1cc(/C=C/c2ccc(OCC(=O)NCCCO)cc2)c(/C=N/OCc2ccc(Cl)c(F)c2)c(OC)c1
RAW264.7 [1]
  inhibition at 20 µM: 61%
RAW264.7 [2]
  Activity: Non-toxic
RAW264.7 [3]
  IC50: 17.4 µM

## COc1cc(/C=C/c2ccc(OCC(=O)O)cc2)c(/C=N/OCc2ccc(Br)c(F)c2)c(OC)c1
RAW264.7 [1]
  inhibition at 20 µM: 25.8%
RAW264.7 [2]
  Activity: Non-toxic

## COc1cc(/C=C/c2ccc(OCC(=O)O)cc2)c(/C=N/OCc2ccccc2)c(OC)c1
RAW264.7 [1]
  inhibition at 20 µM: 25.2%
RAW264.7 [2]
  Activity: Non-toxic

## CCOC(=O)COc1ccc(/C=C/c2cc(OC)cc(OC)c2/C=N/OCc2ccc(F)cc2)cc1
RAW264.7 [1]
  inhibition at 20 µM: 28.6%
RAW264.7 [2]
  Activity: Non-toxic

## CCOC(=O)COc1ccc(/C=C/c2cc(OC)cc(OC)c2/C=N/OCc2ccc(C(F)(F)F)cc2)cc1
RAW264.7 [1]
  inhibition at 20 µM: 18.6%
RAW264.7 [2]
  Activity: Non-toxic

## CCNC(=O)COc1ccc(/C=C/c2cc(OC)cc(OC)c2/C=N/OCc2ccccc2)cc1
RAW264.7 [1]
  inhibition at 20 µM: 71.3%
RAW264.7 [2]
  Activity: Non-toxic
RAW264.7 [3]
  IC50: 12.3 µM

## CCOC(=O)COc1ccc(/C=C/c2cc(OC)cc(OC)c2/C=N/OCc2ccc(Br)c(F)c2)cc1
RAW264.7 [1]
  inhibition at 20 µM: 29.3%
RAW264.7 [2]
  Activity: Non-toxic

## COc1cc(/C=C/c2ccc(OCC(=O)O)cc2)c(/C=N/OCc2ccc(Br)cc2)c(OC)c1
RAW264.7 [1]
  inhibition at 20 µM: 13.7%
RAW264.7 [2]
  Activity: Non-toxic

## CCCCO/N=C/c1c(/C=C/c2ccc(OCC(=O)O)cc2)cc(OC)cc1OC
RAW264.7 [1]
  inhibition at 20 µM: 20.2%
RAW264.7 [2]
  Activity: Non-toxic

## CCOC(=O)COc1ccc(/C=C/c2cc(OC)cc(OC)c2/C=N/OCc2ccc(Cl)c(F)c2)cc1
RAW264.7 [1]
  inhibition at 20 µM: 28.1%
RAW264.7 [2]
  Activity: Non-toxic

## COc1cc(/C=C/c2ccc(OCC(=O)NCCCO)cc2)c(/C=N/OCc2ccc(F)cc2)c(OC)c1
RAW264.7 [1]
  inhibition at 20 µM: 86.7%
RAW264.7 [4]
  IC50: 9.14 µM
RAW264.7 [2]
  Activity: Non-toxic
RAW264.7 [3]
  IC50: 9.87 µM
RAW264.7 [5]
  IC50: 7.36 µM
RAW264.7 [6]
  Activity: Dose-dependent-effect
RAW264.7 [7]
  Activity: Dose-dependent-effect
RAW264.7 [8]
  IC50: 6.76 µM
RAW264.7 [9]
  Activity: Dose-dependent-effect
RAW264.7 [10]
  Activity: Dose-dependent-effect
RAW264.7 [11]
  Activity: Dose-dependent-effect

## CCCCCC(=O)OCCCNC(=O)COc1ccc(/C=C/c2cc(OC)cc(OC)c2/C=N/OCc2ccc(F)cc2)cc1
RAW264.7 [1]
  inhibition at 20 µM: 33.1%
RAW264.7 [2]
  Activity: Non-toxic

## COc1cc(/C=C/c2ccc(OCC(=O)NCCCO)cc2)c(/C=N/OCc2ccc(Br)c(F)c2)c(OC)c1
RAW264.7 [1]
  inhibition at 20 µM: 48%
RAW264.7 [2]
  Activity: Non-toxic

## COc1cc(/C=C/c2ccc(OCC(=O)O)cc2)c(/C=N/OCc2ccc(Cl)c(F)c2)c(OC)c1
RAW264.7 [1]
  inhibition at 20 µM: 23.8%
RAW264.7 [2]
  Activity: Non-toxic

## Cc1ccc(-c2cc(C(F)(F)F)nn2-c2ccc(S(N)(=O)=O)cc2)cc1 [CELECOXIB]
RAW264.7 [1]
  inhibition at 20 µM: 29.4%

## CCNC(=O)COc1ccc(/C=C/c2cc(OC)cc(OC)c2/C=N/OCc2ccc(Cl)cc2)cc1
RAW264.7 [1]
  inhibition at 20 µM: 49.2%
RAW264.7 [2]
  Activity: Non-toxic

## CCCCCCCC(=O)OCCCNC(=O)COc1ccc(/C=C/c2cc(OC)cc(OC)c2/C=N/OCc2ccc(F)cc2)cc1
RAW264.7 [1]
  inhibition at 20 µM: 20.8%
RAW264.7 [2]
  Activity: Non-toxic

## CCOC(=O)COc1ccc(/C=C/c2cc(OC)cc(OC)c2/C=N/OCc2ccccc2)cc1
RAW264.7 [1]
  inhibition at 20 µM: 37.8%
RAW264.7 [2]
  Activity: Non-toxic

## COc1cc(/C=C/c2ccc(OCC(=O)NCCCO)cc2)c(/C=N/OCc2ccc(Cl)cc2)c(OC)c1
RAW264.7 [1]
  inhibition at 20 µM: 64.6%
RAW264.7 [2]
  Activity: Non-toxic
RAW264.7 [3]
  IC50: 18.1 µM

## C#CCO/N=C/c1c(/C=C/c2ccc(OCC(=O)O)cc2)cc(OC)cc1OC
RAW264.7 [1]
  inhibition at 20 µM: 22.2%
RAW264.7 [2]
  Activity: Non-toxic

## COc1cc(/C=C/c2ccc(OCC(=O)O)cc2)c(/C=N/OCc2ccc(C(F)(F)F)cc2)c(OC)c1
RAW264.7 [1]
  inhibition at 20 µM: 21.8%
RAW264.7 [2]
  Activity: Non-toxic

## CCOC(=O)COc1ccc(/C=C/c2cc(OC)cc(OC)c2/C=N/OCc2ccc(C)cc2)cc1
RAW264.7 [1]
  inhibition at 20 µM: 20%
RAW264.7 [2]
  Activity: Non-toxic

## CCOC(=O)COc1ccc(/C=C/c2cc(OC)cc(OC)c2/C=N/OCc2ccc(Cl)cc2)cc1
RAW264.7 [1]
  inhibition at 20 µM: 29%
RAW264.7 [2]
  Activity: Non-toxic

## CCCCO/N=C/c1c(/C=C/c2ccc(OCC(=O)OCC)cc2)cc(OC)cc1OC
RAW264.7 [1]
  inhibition at 20 µM: 17.2%
RAW264.7 [2]
  Activity: Non-toxic

## C#CCO/N=C/c1c(/C=C/c2ccc(OCC(=O)OCC)cc2)cc(OC)cc1OC
RAW264.7 [1]
  inhibition at 20 µM: 21.8%
RAW264.7 [2]
  Activity: Non-toxic

## CCNC(=O)COc1ccc(/C=C/c2cc(OC)cc(OC)c2/C=N/OCc2ccc(Br)c(F)c2)cc1
RAW264.7 [1]
  inhibition at 20 µM: 42.1%
RAW264.7 [2]
  Activity: Non-toxic

## CCNC(=O)COc1ccc(/C=C/c2cc(OC)cc(OC)c2/C=N/OCc2ccc(F)cc2)cc1
RAW264.7 [1]
  inhibition at 20 µM: 68.5%
RAW264.7 [2]
  Activity: Non-toxic
RAW264.7 [3]
  IC50: 14.6 µM

## COc1cc(/C=C/c2ccc(OCC(=O)O)cc2)c(/C=N/OCc2ccc(C)cc2)c(OC)c1
RAW264.7 [1]
  inhibition at 20 µM: 18.9%
RAW264.7 [2]
  Activity: Non-toxic
